{
  "source": "ChEMBL document CHEMBL5241106",
  "about": "“Discovery of a Dual Tubulin and Poly(ADP-Ribose) Polymerase-1 Inhibitor by Structure-Based Pharmacophore Modeling, Virtual Screening, Molecular Docking, and Biological Evaluation” (J Med Chem, 2021)",
  "key": {"MDA-MB-231 [1]": {"system": "MDA-MB-231", "assay": "Inhibition of colony formation in human MDA-MB-231 cells at 2.5 uM measured after 10 days by crystal violet staining based analysis", "type": "functional", "settings": "MDA-MB-231, 240 h, time 10 day"}, "[2]": {"assay": "Toxicity in BALB/c mouse xenografted with human MDA-MB-231 cells assessed as change in kidney morphological changes at 1 to 5 mg/kg, ip administered every 4 days for 7 times measured at 48 hrs post-last administration by H and E staining based fluorescence microscopic analysis", "type": "organism-based", "settings": "in vivo, 720 h, dose 1-5 mg/kg, time 30 day"}, "MDA-MB-231 [3]": {"system": "MDA-MB-231", "assay": "Induction of apoptosis in human MDA-MB-231 cells assessed as late apoptotic cells at 12.5 uM incubated for 48 hrs by Annexin V-FITC/PI staining based flow cytometry (reference value: 5.06%)", "type": "functional"}, "HUVEC": {"system": "HUVEC", "assay": "[…] of angiogenesis in human HUVEC cells assessed as inhibition of capillary tube formation incubated for 8 hrs by inverted microscopic analysis", "type": "functional, cell-based", "settings": "dose 0.5-12.5 µM"}, "MDA-MB-231 [4]": {"system": "MDA-MB-231", "assay": "Induction of cell cycle arrest in human MDA-MB-231 cells assessed as proportion of cells at G2/M phase at 0.5 uM incubated for 48 hrs by propidium iodide staining based flow cytometry (reference value: 9.81%)", "type": "functional"}, "MDA-MB-231 [5]": {"system": "MDA-MB-231", "assay": "Induction of apoptosis in human MDA-MB-231 cells assessed as necrotic cells at 2.5 uM incubated for 48 hrs by Annexin V-FITC/PI staining based flow cytometry (reference value: 1.86%)", "type": "functional"}, "MDA-MB-231 [6]": {"system": "MDA-MB-231", "assay": "Cytotoxicity against human MDA-MB-231 cells assessed as inhibition of cell growth incubated for 72 hrs by MTT assay", "type": "functional, cell-based"}, "HepG2": {"system": "HepG2", "assay": "Cytotoxicity against human HepG2 cells assessed as inhibition of cell growth incubated for 72 hrs by MTT assay", "type": "functional, cell-based", "settings": "HepG2, 72 h"}, "MDA-MB-231 [7]": {"system": "MDA-MB-231", "assay": "Induction of cell cycle arrest in human MDA-MB-231 cells assessed as decrease in cyclin B1 expression at 0.5 to 12.5 uM incubated for 48 hrs by western blot analysis", "type": "functional, cell-based", "settings": "dose 0.5-12.5 µM"}, "[8]": {"assay": "Toxicity in BALB/c mouse xenografted with human MDA-MB-231 cells assessed as change in lung morphological changes at 1 to 5 mg/kg, ip administered every 4 days for 7 times measured at 48 hrs post-last administration by H and E staining based fluorescence microscopic analysis", "type": "organism-based", "settings": "in vivo, 720 h, dose 1-5 mg/kg, time 30 day"}, "MDA-MB-231 [9]": {"system": "MDA-MB-231", "assay": "Induction of cell cycle arrest in human MDA-MB-231 cells assessed as proportion of cells at G2/M phase at 2.5 uM incubated for 48 hrs by propidium iodide staining based flow cytometry (reference value: 9.81%)", "type": "functional"}, "[10]": {"assay": "Toxicity in BALB/c mouse xenografted with human MDA-MB-231 cells assessed as effect on WBC count at 1 to 5 mg/kg, ip administered every 4 days for 7 times measured at 48 hrs post-last administration", "type": "organism-based", "settings": "in vivo, 720 h, dose 1-5 mg/kg, time 30 day"}, "Tubulin (Homo sapiens) [11]": {"molecular_target": "T1, Tubulin (Homo sapiens) (UniProt P68371+Q9H4B7+P0DPH7+P68366+Q13509+Q71U36+P04350+Q3ZCM7+P07437+P68363+Q9BQE3+Q6PEY2+Q13885+Q9BVA1+Q9BUF5)", "assay": "Inhibition of tubulin polymerization in human MDA-MB-231 cells assessed as cell shrinkage, increase in nuclear disruption and microtubule dispersion at 0.5 to 2.5 uM incubated for 48 hrs by immunofluorescence assay", "type": "cell-based", "settings": "dose 0.5-2.5 µM"}, "MDA-MB-231 [12]": {"system": "MDA-MB-231", "assay": "Induction of apoptosis in human MDA-MB-231 cells assessed as apoptotic body formation by measuring change in cell morphology with disruption of cell nuclei incubated for 24 hrs by DAPI staining based confocal laser microscopy", "type": "functional", "settings": "dose 0.5-12.5 µM"}, "HeLa": {"system": "HeLa", "assay": "Cytotoxicity against human HeLa cells assessed as inhibition of cell growth incubated for 72 hrs by MTT assay", "type": "functional, cell-based"}, "[13]": {"molecular_target": "Phosphatidylinositol 4,5-bisphosphate 3-kinase catalytic subunit gamma isoform (Homo sapiens, UniProt P48736)", "assay": "Inhibition of PI3KCG (unknown origin)"}, "MDA-MB-231 [14]": {"system": "MDA-MB-231", "assay": "Inhibition of colony formation in human MDA-MB-231 cells measured after 10 days by crystal violet staining based analysis", "type": "functional, cell-based", "settings": "dose 0.5-12.5 µM, time 10.0 day"}, "[15]": {"assay": "Selectivity index, ratio of IC50 for cytotoxicity against human MCF-10A cells to IC50 for cytotoxicity against human MDA-MB-231 cells", "type": "toxicity, cell-based", "settings": "MCF-10A cells versus MDA-MB-231 cells, read-out: Ratio IC50"}, "MCF-10A": {"system": "MCF-10A", "assay": "Induction of apoptosis in human MCF-10A cells at 0.5 to 12.5 uM incubated for 48 hrs by Annexin V-FITC/PI staining based flow cytometry", "type": "toxicity, cell-based", "settings": "dose 0.5-12.5 µM"}, "[16]": {"assay": "Toxicity in BALB/c mouse xenografted with human MDA-MB-231 cells assessed as change in spleen morphological changes at 1 to 5 mg/kg, ip administered every 4 days for 7 times measured at 48 hrs post-last administration by H and E staining based fluorescence microscopic analysis", "type": "organism-based", "settings": "in vivo, 720 h, dose 1-5 mg/kg, time 30 day"}, "MDA-MB-231 [17]": {"system": "MDA-MB-231", "assay": "Induction of apoptosis in human MDA-MB-231 cells assessed as increase in cleaved PARP level at 0.5 to 12.5 uM incubated for 48 hrs by western blot analysis", "type": "functional, cell-based", "settings": "dose 0.5-12.5 µM"}, "MDA-MB-231 [18]": {"system": "MDA-MB-231", "assay": "Induction of apoptosis in human MDA-MB-231 cells assessed as viable cells at 0.5 uM incubated for 48 hrs by Annexin V-FITC/PI staining based flow cytometry (reference value: 91.4%)", "type": "functional", "settings": "read-out: Activity"}, "MDA-MB-231 [19]": {"system": "MDA-MB-231", "assay": "Induction of apoptosis in human MDA-MB-231 cells assessed as necrotic cells at 12.5 uM incubated for 48 hrs by Annexin V-FITC/PI staining based flow cytometry (reference value: 1.86%)", "type": "functional"}, "[20]": {"assay": "Renal toxicity in BALB/c mouse xenografted with human MDA-MB-231 cells assessed as effect on blood urea nitrogen level at 1 to 5 mg/kg, ip administered every 4 days for 7 times measured at 48 hrs post-last administration", "type": "organism-based", "settings": "in vivo, 720 h, dose 1-5 mg/kg, time 30 day"}, "[21]": {"assay": "Toxicity in BALB/c mouse xenografted with human MDA-MB-231 cells assessed as effect on hemoglobin level at 1 to 5 mg/kg, ip administered every 4 days for 7 times measured at 48 hrs post-last administration", "type": "organism-based", "settings": "in vivo, 720 h, dose 1-5 mg/kg, time 30 day"}, "MDA-MB-231 [22]": {"system": "MDA-MB-231", "assay": "Induction of apoptosis in human MDA-MB-231 cells assessed as viable cells at 2.5 uM incubated for 48 hrs by Annexin V-FITC/PI staining based flow cytometry (reference value: 91.4%)", "type": "functional", "settings": "read-out: Activity"}, "MDA-MB-231 [23]": {"system": "MDA-MB-231", "assay": "Induction of apoptosis in human MDA-MB-231 cells assessed as necrotic cells at 0.5 uM incubated for 48 hrs by Annexin V-FITC/PI staining based flow cytometry (reference value: 1.86%)", "type": "functional"}, "MDA-MB-231 [24]": {"system": "MDA-MB-231", "assay": "Induction of apoptosis in human MDA-MB-231 cells assessed as early apoptotic cells at 12.5 uM incubated for 48 hrs by Annexin V-FITC/PI staining based flow cytometry (reference value: 1.71%)", "type": "functional"}, "[25]": {"assay": "Renal toxicity in BALB/c mouse xenografted with human MDA-MB-231 cells assessed as effect on blood creatinine level at 1 to 5 mg/kg, ip administered every 4 days for 7 times measured at 48 hrs post-last administration", "type": "organism-based", "settings": "in vivo, 720 h, dose 1-5 mg/kg, time 30 day"}, "Tubulin (Homo sapiens) [26]": {"molecular_target": "T1, Tubulin (Homo sapiens)", "assay": "Inhibition of tubulin polymerization in human MDA-MB-231 cells assessed as blurred or disappeared nucleus and destruction of normal microtubule network at 12.5 uM incubated for 48 hrs by immunofluorescence assay", "type": "cell-based"}, "Tubulin (Bos taurus)": {"molecular_target": "Tubulin (Bos taurus) (UniProt Q6B856+Q862L2+Q862F3)", "assay": "Inhibition of [3H]colchicine binding to tubulin to bovine brain tubulin at 5 to 50 uM by competitive binding assay", "type": "tissue-based", "settings": "dose 5-50 µM"}},
  "note": "Calls of active or inactive are those of the source. The calls are words filed in the database; no cut-off is given here.",
  "data": [
    {"smiles": "O=c1[nH]c(/C=C/c2cccc(F)c2)nc2ccccc12", "values": [
      {"measurement": "inhibition at 2.5 µM", "setting": "MDA-MB-231 [1]", "result": 100, "unit": "%"},
      {"measurement": "Activity", "setting": "[2]", "result": "Non-Toxic"},
      {"measurement": "Activity", "setting": "MDA-MB-231 [3]", "result": 8.97, "unit": "%"},
      {"measurement": "Activity", "setting": "HUVEC", "result": "Dose-Dependent Effect"},
      {"measurement": "Activity", "setting": "MDA-MB-231 [4]", "result": 23.57, "unit": "%"},
      {"measurement": "Activity", "setting": "MDA-MB-231 [5]", "result": 1, "unit": "%"},
      {"measurement": "Activity", "setting": "MDA-MB-231 [6]", "result": "Active"},
      {"measurement": "IC50", "setting": "HepG2", "result": 900, "unit": "nM"},
      {"measurement": "Activity", "setting": "MDA-MB-231 [7]", "result": "Active"},
      {"measurement": "Activity", "setting": "[8]", "result": "Non-Toxic"},
      {"measurement": "Activity", "setting": "MDA-MB-231 [9]", "result": 33.56, "unit": "%"},
      {"measurement": "Activity", "setting": "[10]", "result": "Non-Toxic"},
      {"measurement": "inhibition", "setting": "Tubulin (Homo sapiens) [11]", "result": "Active"},
      {"measurement": "Activity", "setting": "MDA-MB-231 [12]", "result": "Dose-Dependent Effect"},
      {"measurement": "IC50", "setting": "HeLa", "result": 1500, "unit": "nM"},
      {"measurement": "IC50", "setting": "[13]", "result": "> 10000", "unit": "nM"},
      {"measurement": "inhibition", "setting": "MDA-MB-231 [14]", "result": "Dose-Dependent Effect"},
      {"measurement": "selectivity ratio", "setting": "[15]", "result": "> 14"},
      {"measurement": "Activity", "setting": "MCF-10A", "result": "Non-Toxic"},
      {"measurement": "Activity", "setting": "[16]", "result": "Non-Toxic"},
      {"measurement": "Activity", "setting": "MDA-MB-231 [17]", "result": "Active"},
      {"measurement": "viability at 0.5 µM", "setting": "MDA-MB-231 [18]", "result": 90.6, "unit": "%"},
      {"measurement": "Activity", "setting": "MDA-MB-231 [19]", "result": 4.29, "unit": "%"},
      {"measurement": "Activity", "setting": "[20]", "result": "Non-Toxic"},
      {"measurement": "Activity", "setting": "[21]", "result": "Non-Toxic"},
      {"measurement": "viability at 2.5 µM", "setting": "MDA-MB-231 [22]", "result": 90.2, "unit": "%"},
      {"measurement": "Activity", "setting": "MDA-MB-231 [23]", "result": 0.88, "unit": "%"},
      {"measurement": "Activity", "setting": "MDA-MB-231 [24]", "result": 3.32, "unit": "%"},
      {"measurement": "Activity", "setting": "[25]", "result": "Non-Toxic"},
      {"measurement": "inhibition", "setting": "Tubulin (Homo sapiens) [26]", "result": "Active"},
      {"measurement": "inhibition", "setting": "Tubulin (Bos taurus)", "result": "Active"}
    ]}
  ]
}
